22 compounds from US20260200897A1, “4-((5-(3-(4-(PYRIDIN-2-YL)CYCLOPENTYL)-1H-PYRAZOL-3-YL)AMINO)-BENZENESULFONAMIDE DERIVATIVES AND SIMILAR COMPOUNDS AS CDK INHIBITORS FOR THE TREATMENT OF CANCER” (BeOne Medicines I GmbH, priority 2023, published 2026) can be followed below.

For test [1], the target named is T1, CDK1/Cyclin B1 (Homo sapiens, UniProt P06493). Nature of the test: CDK1/Cyclin B1 TR-FRET biochemical assay, 0.015 mM ATP. The following applies: 0.15 μM Rb (Ser780)-biotin substrate, 120 min reaction, Table 1. As for the experimental part: (§1) Compounds disclosed herein were tested for inhibition of CDK2/Cyclin E1 or CDK1/Cyclin B1 kinase in an assay based on the time-resolved fluorescence-resonance energy transfer (TR-FRET) methodology. The assay was carried out in 384-well low volume black plates in a reaction mixture containing CDK2/Cyclin E1 or CDK1/Cyclin B1, 0.060 mM ATP for CDK2/Cyclin E1 or 0.015 mM ATP for CDK1/Cyclin B1, 0.15 μM Rb (Ser780)-biotin substrate and 0-10 μM compound in buffer containing 50 mM HEPES pH7.0, 0.02% NaN3, 0.01% BSA, 0.1 mM Orthovanadate, 50 mM MgCl2, 1 mM DTT and 0.005% Tween-20. The kinase was incubated with compound for 60 minutes at room temperature and the reaction was initiated by the addition of ATP and Rb (Ser780)-biotin substrate. After reaction at room temperature for 120 minutes, an equal volume of stop/detection solution was added according to the manufacture's instruction (Cisbio Bioassays). The stop/detection solution contained Streptavidin-XL665 and Anti-pRb (Ser780) mAb-Eu Cryptate in Detection buffer (Cisbio Bioassays). Plates were incubated at room temperature for 60 minutes, and the TR-FRET signals (ex337 nm, em665 nm/620 nm) were recorded on a PHERAstar FSX plate reader (BMG Labtech). The inhibition percentage of CDK2/Cyclin E1 or CDK1/Cyclin B1 kinase activity in presence of increasing concentrations of compounds was calculated based on the ratio of fluorescence at 665 nm to that at 620 nm. The IC50 for each compound was derived from fitting the data to the four-parameter logistic equation by Dotmatics.
(In general: In TR-FRET formats the signal depends on donor and acceptor labels being close together.)

The target of test [2] is T2, CDK2/Cyclin E1 (Homo sapiens, UniProt P24941). Nature of the test: CDK2/Cyclin E1 TR-FRET biochemical assay, 0.060 mM ATP. To be noted: 0.15 μM Rb (Ser780)-biotin substrate, 120 min reaction, Table 1. The procedure:
as §1

The target in test [3] is T1, CDK1/Cyclin B1. Nature of the test: CDK1/Cyclin B1 TR-FRET biochemical assay, 1 mM ATP. To be noted: 0.15 μM Rb (Ser780)-biotin substrate, 90 min reaction, Table 2.
Test [4] deals with T2, CDK2/Cyclin E1. Nature of the test: CDK2/Cyclin E1 TR-FRET biochemical assay, 1 mM ATP. To be noted: 0.15 μM Rb (Ser780)-biotin substrate, 90 min reaction, Table 2.

T1 sequence (P06493 whole entry): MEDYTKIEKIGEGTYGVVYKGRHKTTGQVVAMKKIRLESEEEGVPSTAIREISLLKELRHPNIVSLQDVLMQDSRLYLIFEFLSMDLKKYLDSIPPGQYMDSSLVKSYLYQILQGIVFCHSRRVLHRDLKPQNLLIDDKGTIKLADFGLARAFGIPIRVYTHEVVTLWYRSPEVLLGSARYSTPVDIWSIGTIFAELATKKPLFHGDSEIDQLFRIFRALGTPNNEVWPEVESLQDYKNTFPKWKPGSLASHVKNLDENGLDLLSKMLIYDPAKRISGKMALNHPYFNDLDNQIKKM
T1 sequence (P14635 whole entry partner): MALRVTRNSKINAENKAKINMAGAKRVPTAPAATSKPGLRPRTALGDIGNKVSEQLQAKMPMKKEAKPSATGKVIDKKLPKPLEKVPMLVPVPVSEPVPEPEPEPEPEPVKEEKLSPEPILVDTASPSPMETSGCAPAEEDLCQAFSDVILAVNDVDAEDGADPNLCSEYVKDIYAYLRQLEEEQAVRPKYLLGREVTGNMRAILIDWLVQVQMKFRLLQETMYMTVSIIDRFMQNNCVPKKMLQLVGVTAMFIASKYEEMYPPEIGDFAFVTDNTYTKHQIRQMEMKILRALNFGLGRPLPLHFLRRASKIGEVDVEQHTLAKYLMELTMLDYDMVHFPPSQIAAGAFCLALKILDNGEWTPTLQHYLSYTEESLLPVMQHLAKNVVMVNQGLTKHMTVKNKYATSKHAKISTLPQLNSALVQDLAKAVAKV

Regarding `O=c1cccnn1[C@H]1CC[C@@H](c2cc(Nc3ccc4c(c3F)CNS4(=O)=O)n[nH]2)C1` (relative stereo) [Example 21, cis-2-(3-(3-((4-fluoro-1,1-dioxido-2,3-dihydrobenzo[d]isothiazol-5-yl)amino)-1H-pyrazol-5-yl)cyclopentyl)pyridazin-3 (2H)-one], the results for the IC50 against CDK1/Cyclin B1 [1] and at CDK2/Cyclin E1 [2] were 142 nM and 14 nM, respectively.
For `O=S1(=O)NCc2c1ccc(Nc1cc([C@H]3CC[C@@H](Oc4cccnn4)C3)[nH]n1)c2F` (relative stereo) [Example 22, cis-4-fluoro-5-((5-(3-(pyridazin-3-yloxy)cyclopentyl)-1H-pyrazol-3-yl)amino)-2,3-dihydrobenzo[d]isothiazole 1,1-dioxide], in that order: 239 nM and 43 nM.
In the same order, the values of `Cc1ccnn([C@H]2CC[C@@H](c3cc(Nc4ccc5c(c4F)CNS5(=O)=O)n[nH]3)C2)c1=O` (relative stereo) [Example 23, cis-2-(3-(3-((4-fluoro-1,1-dioxido-2,3-dihydrobenzo[d]isothiazol-5-yl)amino)-1H-pyrazol-5-yl)cyclopentyl)-4-methylpyridazin-3 (2H)-one] are 526 nM and 132 nM.
Consider `Cc1ccnnc1O[C@@H]1CC[C@H](c2cc(Nc3ccc4c(c3F)CNS4(=O)=O)n[nH]2)C1` (relative stereo) [Example 24, cis-4-fluoro-5-((5-(3-((4-methylpyridazin-3-yl)oxy)cyclopentyl)-1H-pyrazol-3-yl)amino)-2,3-dihydrobenzo[d]isothiazole 1,1-dioxide], for which the results for the IC50 against CDK1/Cyclin B1 [1] and against CDK2/Cyclin E1 [2] were 49 nM and 5.7 nM, respectively.
In the same order, the values of `CCc1ccnnc1O[C@@H]1CC[C@H](c2cc(Nc3ccc4c(c3F)CNS4(=O)=O)n[nH]2)C1` (relative stereo) [Example 25, cis-5-((5-(3-((4-ethylpyridazin-3-yl)oxy)cyclopentyl)-1H-pyrazol-3-yl)amino)-4-fluoro-2,3-dihydrobenzo[d]isothiazole 1,1-dioxide] are 11 nM and 1.4 nM.
Take `COc1cccc(C2CCC(c3cc(Nc4ccc5c(c4F)CS(=O)(=O)N5)n[nH]3)C2)n1` (centres unmarked) [Example 160, 4-fluoro-5-((5-(3-(6-methoxypyridin-2-yl)cyclopentyl)-1H-pyrazol-3-yl)amino)-1,3-dihydrobenzo[c]isothiazole 2,2-dioxide]: the IC50 (as a rule, the midpoint of a concentration-inhibition curve) at CDK1/Cyclin B1 [3] is greater than 10000 nM; against CDK2/Cyclin E1 [4], 868 nM.
For `CC(C)(C)c1cc(C2CCC(c3cc(Nc4ccc5c(c4F)CS(=O)(=O)N5)n[nH]3)C2)ccn1` (centres unmarked) [Example 161, 5-((5-(3-(2-(tert-butyl)pyridin-4-yl)cyclopentyl)-1H-pyrazol-3-yl)amino)-4-fluoro-1,3-dihydrobenzo[c]isothiazole 2,2-dioxide], the IC50 on CDK1/Cyclin B1 [3] is greater than 10000 nM; against CDK2/Cyclin E1 [4] it was 1060 nM.
As for `CC(C)(C)c1cncc(C2CCC(c3cc(Nc4ccc5c(c4F)CS(=O)(=O)N5)n[nH]3)C2)c1` (centres unmarked) [Example 162, 5-((5-(3-(5-(tert-butyl)pyridin-3-yl)cyclopentyl)-1H-pyrazol-3-yl)amino)-4-fluoro-1,3-dihydrobenzo[c]isothiazole 2,2-dioxide], the IC50 was greater than 10000 nM at CDK1/Cyclin B1 [3] and 308 nM against CDK2/Cyclin E1 [4].
For `CC(C)(C)c1cnnc(C2CCC(c3cc(Nc4ccc5c(c4F)CS(=O)(=O)N5)n[nH]3)C2)c1` (centres unmarked) [Example 163, 5-((5-(3-(5-(tert-butyl)pyridazin-3-yl)cyclopentyl)-1H-pyrazol-3-yl)amino)-4-fluoro-1,3-dihydrobenzo[c]isothiazole 2,2-dioxide], in that order: 2020 nM and 16 nM.
For `Cc1cc(C(C)(C)C)cc(C2CCC(c3cc(Nc4ccc5c(c4F)CS(=O)(=O)N5)n[nH]3)C2)n1` (centres unmarked) [Example 164, 5-((5-(3-(4-(tert-butyl)-6-methylpyridin-2-yl)cyclopentyl)-1H-pyrazol-3-yl)amino)-4-fluoro-1,3-dihydrobenzo[c]isothiazole 2,2-dioxide], in that order: greater than 10000 nM and 285 nM.
As to `CC(C)c1ccnc(C2CCC(c3cc(Nc4ccc5c(c4F)CS(=O)(=O)N5)n[nH]3)C2)n1` (centres unmarked) [Example 165, 4-fluoro-5-((5-(3-(4-isopropylpyrimidin-2-yl)cyclopentyl)-1H-pyrazol-3-yl)amino)-1,3-dihydrobenzo[c]isothiazole 2,2-dioxide], the values for the IC50 against CDK1/Cyclin B1 [3] and against CDK2/Cyclin E1 [4] were 126 nM and 1.7 nM, respectively.
With `CC(C)(C)c1cnc(C2CCC(c3cc(Nc4ccc5c(c4F)CCS(=O)(=O)N5)n[nH]3)C2)o1` (centres unmarked) [Example 166, 6-((5-(3-(5-(tert-butyl)oxazol-2-yl)cyclopentyl)-1H-pyrazol-3-yl)amino)-5-fluoro-3,4-dihydro-1H-benzo[c][1,2]thiazine 2,2-dioxide], the half-inhibitory concentration (IC50) turned out to be 202 nM on CDK1/Cyclin B1 [3] and 0.9 nM against CDK2/Cyclin E1 [4].
For `CC(C)c1cnc(C2CCC(c3cc(Nc4ccc5c(c4F)CCS(=O)(=O)N5)n[nH]3)C2)o1` (centres unmarked) [Example 167, 5-fluoro-6-((5-(3-(5-isopropyloxazol-2-yl)cyclopentyl)-1H-pyrazol-3-yl)amino)-3,4-dihydro-1H-benzo[c][1,2]thiazine 2,2-dioxide], in that order: 1100 nM and 8 nM.
Take `CC(C)c1cnc(C2CCC(c3cc(Nc4ccc5c(c4)CN=S5(C)=O)n[nH]3)C2)o1` (centres unmarked) [Example 168, 5-((5-(3-(5-isopropyloxazol-2-yl)cyclopentyl)-1H-pyrazol-3-yl)amino)-1-methyl-3H-1λ^4-benzo[d]isothiazole 1-oxide]: the IC50 against CDK1/Cyclin B1 [3] amounted to 2350 nM; against CDK2/Cyclin E1 [4] it was 15 nM.
For `CC(C)c1cnc(C2CCC(c3cc(Nc4ccc5c(c4F)CN=S5(C)=O)n[nH]3)C2)o1` (centres unmarked) [Example 170], in that order: 1440 nM and 5.4 nM.
Consider `CC(C)(C)c1cnc(C2CCC(c3cc(Nc4ccc5c(c4F)CN=S5(C)=O)n[nH]3)C2)o1` (centres unmarked) [Example 171, 5-((5-(3-(5-(tert-butyl)oxazol-2-yl)cyclopentyl)-1H-pyrazol-3-yl)amino)-4-fluoro-1-methyl-3H-1λ^4-benzo[d]isothiazole 1-oxide], for which the figures for the IC50 on CDK1/Cyclin B1 [3] and against CDK2/Cyclin E1 [4] were 348 nM and 2 nM, respectively.
Consider `CC(C)(C)c1cnc(C2CCC(c3cc(Nc4ccc5c(c4F)CS(=O)(=O)C5)n[nH]3)C2)o1` (centres unmarked) [Example 173, 5-((5-(3-(5-(tert-butyl)oxazol-2-yl)cyclopentyl)-1H-pyrazol-3-yl)amino)-4-fluoro-1,3-dihydrobenzo[c]thiophene 2,2-dioxide], for which the IC50 is 198 nM against CDK1/Cyclin B1 [3] and 2.8 nM on CDK2/Cyclin E1 [4].
With `Cc1cc(C(C)(C)C)cc(C2CCC(c3cc(Nc4ccc5c(c4F)CS(=O)(=O)C5)n[nH]3)C2)n1` (centres unmarked) [Example 175, 5-((5-(3-(4-(tert-butyl)-6-methylpyridin-2-yl)cyclopentyl)-1H-pyrazol-3-yl)amino)-4-fluoro-1,3-dihydrobenzo[c]thiophene 2,2-dioxide], the IC50 was greater than 10000 nM on CDK1/Cyclin B1 [3] and 439 nM against CDK2/Cyclin E1 [4].
On to `CC(C)(C)c1ccc(C2CCC(c3cc(Nc4ccc5c(c4F)CS(=O)(=O)C5)n[nH]3)C2)o1` (centres unmarked) [Example 176, 5-((5-(3-(5-(tert-butyl)furan-2-yl)cyclopentyl)-1H-pyrazol-3-yl)amino)-4-fluoro-1,3-dihydrobenzo[c]thiophene 2,2-dioxide], for which the IC50 against CDK1/Cyclin B1 [3] is greater than 10000 nM; on CDK2/Cyclin E1 [4], 438 nM.
As for `Cc1nc(C2CCC(c3cc(Nc4ccc5c(c4F)CS(=O)(=O)C5)n[nH]3)C2)oc1C(C)(C)C` (centres unmarked) [Example 177, 5-((5-(3-(5-(tert-butyl)-4-methyloxazol-2-yl)cyclopentyl)-1H-pyrazol-3-yl)amino)-4-fluoro-1,3-dihydrobenzo[c]thiophene 2,2-dioxide], the half-inhibitory concentration (IC50) on CDK1/Cyclin B1 [3] was 336 nM; at CDK2/Cyclin E1 [4], 3 nM.
In the same order, the values of `CC(C)c1ccnc(C2CCC(c3cc(Nc4ccc5c(c4F)CS(=O)(=O)C5)n[nH]3)C2)c1` (centres unmarked) [Example 178, 4-fluoro-5-((5-(3-(4-isopropylpyridin-2-yl)cyclopentyl)-1H-pyrazol-3-yl)amino)-1,3-dihydrobenzo[c]thiophene 2,2-dioxide] are 1520 nM and 7 nM.
In the same order, the values of `CC(C)(O)c1cnc(C2CCC(c3cc(Nc4ccc5c(c4F)CS(=O)(=O)C5)n[nH]3)C2)o1` (centres unmarked) [Example 179, 4-fluoro-5-((5-(3-(5-(2-hydroxypropan-2-yl)oxazol-2-yl)cyclopentyl)-1H-pyrazol-3-yl)amino)-1,3-dihydrobenzo[c]thiophene 2,2-dioxide] are 537 nM and 1.5 nM.
